The results in this text go back to ChEMBL document CHEMBL5365419, “Identification of a Protein Arginine Methyltransferase 7 (PRMT7)/Protein Arginine Methyltransferase 9 (PRMT9) Inhibitor” (J Med Chem, 2023).

Active and inactive are the calls of the source. The calls are words filed in the database; no cut-off is given here.

Assay [1] deals with T1, Protein arginine N-methyltransferase 9 (Homo sapiens) (UniProt Q6P2P2).
T1 sequence (whole entry): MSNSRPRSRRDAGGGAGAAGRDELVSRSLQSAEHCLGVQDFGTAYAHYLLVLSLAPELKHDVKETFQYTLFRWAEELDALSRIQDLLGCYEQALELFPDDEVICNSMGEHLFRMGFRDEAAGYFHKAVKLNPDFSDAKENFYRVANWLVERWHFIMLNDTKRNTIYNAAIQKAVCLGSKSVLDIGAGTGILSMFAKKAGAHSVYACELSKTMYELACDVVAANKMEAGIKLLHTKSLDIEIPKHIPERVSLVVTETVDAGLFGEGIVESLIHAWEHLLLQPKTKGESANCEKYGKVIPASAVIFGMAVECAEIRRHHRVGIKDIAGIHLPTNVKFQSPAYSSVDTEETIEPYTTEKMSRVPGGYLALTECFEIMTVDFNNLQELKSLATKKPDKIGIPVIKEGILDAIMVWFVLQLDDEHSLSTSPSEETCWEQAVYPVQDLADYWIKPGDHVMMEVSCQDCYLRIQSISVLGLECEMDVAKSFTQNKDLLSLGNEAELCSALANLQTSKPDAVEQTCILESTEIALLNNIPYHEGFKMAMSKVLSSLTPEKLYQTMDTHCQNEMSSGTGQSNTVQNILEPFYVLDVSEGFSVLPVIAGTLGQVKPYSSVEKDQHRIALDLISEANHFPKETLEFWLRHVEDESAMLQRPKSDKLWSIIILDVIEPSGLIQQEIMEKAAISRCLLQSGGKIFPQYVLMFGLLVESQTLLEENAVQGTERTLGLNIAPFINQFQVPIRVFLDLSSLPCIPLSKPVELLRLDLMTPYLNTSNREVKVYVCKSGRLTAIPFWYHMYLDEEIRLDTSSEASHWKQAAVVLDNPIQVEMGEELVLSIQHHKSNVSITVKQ
The assay can be described thus: Inhibition of human recombinant PRMT9 using biotinylated SF3B2(500 to 519 residues) as substrate and SAM as cosubstrate pre-incubated with compound for 30 mins followed by substrate addition measured after 60 mins by AlphaLISA assay. The conditions noted are these: time 90.0 min. (Bead proximity is the source of the signal in Alpha formats.)

The target of assay [2] is T1, Protein arginine N-methyltransferase 9 (Homo sapiens). The assay can be described thus: Inhibition of human GST-fused PRMT9 expressed in Escherichia coli at 100 uM using human GST-SF3B2 (401 to 550 residues) peptide as substrate and human histone H2B as cosubstrate incubated under 37 degreeC in presence of 3H-SAM by SDS-PAGE based densitometric analysis.
Assay [3] has the same target. The experiment in a line: Inhibition of human GST-fused PRMT9 expressed in Escherichia coli using human GST-SF3B2 (401 to 550 residues) peptide as substrate and human histone H2B as cosubstrate under 37 degreeC in presence of 3H-SAM by SDS-PAGE based densitometric analysis. The note with it: dose 5-100 µM.
Assay [4] has the same target. The experiment in a line: Inhibition of human GST-fused PRMT9 expressed in Escherichia coli at 100 uM using human GST-SF3B2 (401 to 550 residues) peptide as substrate and human histone H2B as cosubstrate incubated under 37 degreeC in presence of 3H-SAM by SDS-PAGE based densitometric analysis relative to control.
Assay [5] addresses T2, Protein arginine N-methyltransferase 7 (Homo sapiens) (UniProt Q9NVM4).
T2 sequence (whole entry): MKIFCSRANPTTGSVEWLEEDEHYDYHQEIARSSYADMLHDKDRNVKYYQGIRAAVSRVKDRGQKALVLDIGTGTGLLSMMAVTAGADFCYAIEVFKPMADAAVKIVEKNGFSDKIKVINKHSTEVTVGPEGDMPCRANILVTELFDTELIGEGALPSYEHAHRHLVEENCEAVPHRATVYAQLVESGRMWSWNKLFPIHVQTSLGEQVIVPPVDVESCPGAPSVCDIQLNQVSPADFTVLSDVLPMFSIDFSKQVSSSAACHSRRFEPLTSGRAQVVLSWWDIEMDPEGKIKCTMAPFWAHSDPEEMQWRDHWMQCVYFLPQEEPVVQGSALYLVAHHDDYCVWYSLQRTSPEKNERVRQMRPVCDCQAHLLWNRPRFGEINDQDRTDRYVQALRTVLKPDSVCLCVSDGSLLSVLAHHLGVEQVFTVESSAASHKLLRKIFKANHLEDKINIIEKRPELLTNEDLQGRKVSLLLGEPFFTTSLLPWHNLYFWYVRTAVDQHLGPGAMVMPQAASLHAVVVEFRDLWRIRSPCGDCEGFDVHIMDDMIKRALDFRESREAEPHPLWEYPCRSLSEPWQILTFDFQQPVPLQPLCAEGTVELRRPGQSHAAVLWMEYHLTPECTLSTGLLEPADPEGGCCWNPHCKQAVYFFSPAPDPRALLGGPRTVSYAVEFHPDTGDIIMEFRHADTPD
The experiment in a line: Inhibition of human GST-fused PRMT7 expressed in Escherichia coli at 100 uM using human GST-SF3B2 (401 to 550 residues) peptide as substrate and human histone H2B as cosubstrate incubated under 15 degreeC in presence of 3H-SAM by SDS-PAGE based densitometric analysis.

The subject of assay [6] is Caenorhabditis elegans. The experiment in a line: Inhibition of Caenorhabditis elegans GST-fused PRMT9 expressed in Escherichia coli at 100 uM using Caenorhabditis elegans GST-SFTB2 (99 to 248 residues) peptide as substrate and human histone H2B as cosubstrate incubated under 25 degreeC in presence of 3H-SAM by SDS-PAGE based densitometric analysis relative to control.

Assay [7] in a line: Selectivity ratio of human GST-fused PRMT9 to Caenorhabditis elegans GST-fused PRMT9.
Assay [8] relates to Caenorhabditis elegans. The experiment in a line: Inhibition of Caenorhabditis elegans GST-fused PRMT7 expressed in Escherichia coli at 100 uM using Caenorhabditis elegans GST-SFTB-2 (99 to 248 residues) peptide as substrate and human histone H2B as cosubstrate incubated under 15 degreeC in presence of 3H-SAM by SDS-PAGE based densitometric analysis.
Assay [9] concerns the target T1, Protein arginine N-methyltransferase 9 (Homo sapiens). The experiment in a line: Inhibition of PRMT9 catalysed SF3B2 R508 methylation in human MCF7 cells upto 100 uM measured after 72 hrs by immunoblotting analysis. The assay is classed as cell-based. In general terms: A western blot detects proteins with antibodies after separation by electrophoresis.
Assay [10] has the same target. The assay can be described thus: Inhibition of PRMT9 catalysed SF3B2 R508 methylation in human MDA-MB-436 cells upto 100 uM measured after 72 hrs by immunoblotting analysis. The format is cell-based.
For assay [11] the target is unchanged. The assay can be described thus: Inhibition of human GST-fused PRMT9 expressed in Escherichia coli at less than 5 uM using human GST-SF3B2 (401 to 550 residues) peptide as substrate and human histone H2B as cosubstrate incubated under 37 degreeC in presence of 3H-SAM by SDS-PAGE based densitometric analysis relative to control.
Assay [12] has as its system Caenorhabditis elegans. The experiment in a line: Inhibition of Caenorhabditis elegans GST-fused PRMT9 expressed in Escherichia coli at 25 to 50 uM using Caenorhabditis elegans GST-SFTB2 (99 to 248 residues) peptide as substrate and human histone H2B as cosubstrate incubated under 25 degreeC in presence of 3H-SAM by SDS-PAGE based densitometric analysis relative to control. The conditions noted are these: dose 25-50 µM.

The test system of assay [13] is Caenorhabditis elegans. The assay can be described thus: Inhibition of Caenorhabditis elegans GST-fused PRMT7 expressed in Escherichia coli at 250 uM using Caenorhabditis elegans GST-SFTB-2 (99 to 248 residues) peptide as substrate and human histone H2B as cosubstrate incubated under 15 degreeC in presence of 3H-SAM by SDS-PAGE based densitometric analysis relative to control.

The inhibition is the drop in the measured response relative to a control, in per cent. For the molecule `COC(=O)c1cc(O)c2cc(NC(=O)Nc3ccc4cc(C(=O)OC)cc(O)c4c3)ccc2c1`, the inhibition entry in assay [1] is “inactive”.

Take `O=C(Nc1ccc2cc(C(=O)O)cc(O)c2c1)Nc1ccc2cc(C(=O)O)cc(O)c2c1`: the inhibition entry in assay [1] was “inactive”.

Turning to `CSC[C@H]1O[C@@H](n2cnc3c(N)ncnc32)[C@H](O)[C@@H]1O`, the inhibition entry in [2] was “Active”.

Turning to `O=C(Nc1ccc2[nH]cc(C(=O)O)c2c1)Nc1ccc2[nH]cc(C(=O)O)c2c1`, in assay [1], the inhibition result was “inactive”.

`COC(=O)c1cc(O)c2cc(NC(=O)NCCCCCNC(=N)NC[C@H]3O[C@@H](n4cnc5c(N)ncnc54)[C@H](O)[C@@H]3O)ccc2c1`: the results for the inhibition entry (in assay [3]; in [4]; with Caenorhabditis elegans [6]) were “Dose-Dependent Effect”, 100% and 100%, respectively. Besides, the inhibition entry in [5] was “Active”. In addition, the Selectivity ratio in assay [7] is 5. Besides, the inhibition result (in the assay with Caenorhabditis elegans [8]; in assay [9]; in assay [10]) was “inactive” in each case.

Regarding `COC(=O)c1cc(O)c2cc(NC(=O)NCCCCCCCNC(=N)NC[C@H]3O[C@@H](n4cnc5c(N)ncnc54)[C@H](O)[C@@H]3O)ccc2c1`, the inhibition entry in assay [9] and in assay [10] was “inactive” throughout.

Consider `COC(=O)c1c[nH]c2ccc(NC(=O)CC(=O)Nc3ccc4[nH]cc(C(=O)OC)c4c3)cc12`, for which, in assay [1], the inhibition result is “inactive”.

Consider `COC(=O)c1cc(O)c2cc(NC(=O)NCCCCNC(=N)NCC[C@H]3O[C@@H](n4cnc5c(N)ncnc54)[C@H](O)[C@@H]3O)ccc2c1`, for which the inhibition result in assay [9] and in assay [10] was “inactive” each time.

As to `O=C(CC(=O)Nc1ccc2[nH]cc(C(=O)O)c2c1)Nc1ccc2[nH]cc(C(=O)O)c2c1`, in assay [1], the inhibition result is “inactive”.

With `COC(=O)c1cc(O)c2cc(NC(=O)NCCCCNC(=N)NC[C@H]3O[C@@H](n4cnc5c(N)ncnc54)[C@H](O)[C@@H]3O)ccc2c1`, the inhibition in assay [11] is 50%; in [3], “Dose-Dependent Effect”; in [4], 100%; in the assay with Caenorhabditis elegans [6] it was 100%; with Caenorhabditis elegans [12], 50%; with Caenorhabditis elegans [13], 50%. Further, in [5], the inhibition result was “Active”. In addition, the inhibition result in the assay with Caenorhabditis elegans [8] was “inactive”.

As for `COC(=O)c1cc(O)c2cc(NC(=O)NCCCNC(=N)NC[C@H]3O[C@@H](n4cnc5c(N)ncnc54)[C@H](O)[C@@H]3O)ccc2c1`, the inhibition in assay [11] was 50%; in [3], “Dose-Dependent Effect”; in [4] it was 100%; in the assay on Caenorhabditis elegans [6], 100%; in the assay with Caenorhabditis elegans [12], 50%; with Caenorhabditis elegans [13] it was 50%. The inhibition result (in the assay on Caenorhabditis elegans [8]; in assay [9]; in [10]) was “inactive” throughout.

With `CCOC(=O)c1cc2cc(NC(=O)CNC(=O)Nc3ccc([N+](=O)[O-])cc3)ccc2[nH]1`, the inhibition result in assay [1] is “inactive”.
